# PubChem BioAssay AID2060498 (Molecular Pharmacology Branch, DTP, NCI, 2025)
# System: 171881-019-R-J1-PDC tumor spheroids, viability
# Experiment: Anticancer human tumor 171881-019-R-J1-PDC patient-derived invasive breast carcinoma cell line growth inhibition [GQUAD]
# Settings: spheroids with HUVEC and MSC; for IC50: curve of first compound; for viability, T/C: stronger effect = lower value
# Summary of the method: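 Viability of tumor cells grown as complex spheroids with endothelial and stromal cells, exposed to drug combinations. Top concentration at or near clinical Cmax (else 10 microM), diluted in half-log increments.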
# [1] = second compound 0.0316 µM, first compound 0.0316 µM
# [2] = second compound 0.0316 µM, first compound 0.1 µM
# [3] = second compound 0.0316 µM, first compound 0.316 µM
# [4] = second compound 0.0316 µM, first compound 1 µM
# [5] = second compound 0.0316 µM, first compound 3.16 µM
# [6] = second compound 0.0316 µM, first compound 10 µM
# [7] = second compound 0.1 µM, first compound 0.0316 µM
# [8] = second compound 0.1 µM, first compound 0.1 µM
# [9] = second compound 0.1 µM, first compound 0.316 µM
# [10] = second compound 0.1 µM, first compound 1 µM
# [11] = second compound 0.1 µM, first compound 3.16 µM
# [12] = second compound 0.1 µM, first compound 10 µM
# [13] = second compound 0.316 µM, first compound 0.0316 µM
# [14] = second compound 0.316 µM, first compound 0.1 µM
# [15] = second compound 0.316 µM, first compound 0.316 µM
# [16] = second compound 0.316 µM, first compound 1 µM
# [17] = second compound 0.316 µM, first compound 3.16 µM
# [18] = second compound 0.316 µM, first compound 10 µM
# [19] = second compound 1 µM, first compound 0.0316 µM
# [20] = second compound 1 µM, first compound 0.1 µM
# [21] = second compound 1 µM, first compound 0.316 µM
# [22] = second compound 1 µM, first compound 1 µM
# [23] = second compound 1 µM, first compound 3.16 µM
# [24] = second compound 1 µM, first compound 10 µM
# [25] = second compound 3.16 µM, first compound 0.0316 µM
# [26] = second compound 3.16 µM, first compound 0.1 µM
# [27] = second compound 3.16 µM, first compound 0.316 µM
# [28] = second compound 3.16 µM, first compound 1 µM
# [29] = second compound 3.16 µM, first compound 3.16 µM
# [30] = second compound 3.16 µM, first compound 10 µM
# [31] = second compound 10 µM, first compound 0.0316 µM
# [32] = second compound 10 µM, first compound 0.1 µM
# [33] = second compound 10 µM, first compound 0.316 µM
# [34] = second compound 10 µM, first compound 1 µM
# [35] = second compound 10 µM, first compound 3.16 µM
# [36] = second compound 10 µM, first compound 10 µM
# 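Throughout, for viability, T/C: 100% = DMSO vehicle control viability.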
smiles,measurement,setting,value
COc1cc(C2c3cc4c(cc3C(OC3OC5COC(C)OC5C(O)C3O)C3COC(=O)C23)OCO4)cc(OC)c1O (stereo unspecified) + CN(C)c1ccc(Nc2c3ccc(NC(=O)CCN4CCCC4)cc3nc3cc(NC(=O)CCN4CCCC4)ccc23)cc1,IC50,second compound 0.0316 µM,4.59 µM
same,IC50,second compound 0.1 µM,3.5 µM
same,IC50,second compound 0.316 µM,2.63 µM
same,IC50,second compound 1 µM,< 0.0316 µM
same,IC50,second compound 3.16 µM,< 0.0316 µM
same,IC50,second compound 10 µM,< 0.0316 µM
same,"viability, T/C",[1],114%
same,"viability, T/C",[2],103%
same,"viability, T/C",[3],94.9%
same,"viability, T/C",[4],79%
same,"viability, T/C",[5],51.7%
same,"viability, T/C",[6],41.2%
same,"viability, T/C",[7],106%
same,"viability, T/C",[8],108%
same,"viability, T/C",[9],88.9%
same,"viability, T/C",[10],76%
same,"viability, T/C",[11],49.8%
same,"viability, T/C",[12],37.9%
same,"viability, T/C",[13],86.4%
same,"viability, T/C",[14],87.5%
same,"viability, T/C",[15],69.2%
same,"viability, T/C",[16],56.5%
same,"viability, T/C",[17],54.4%
same,"viability, T/C",[18],30.3%
same,"viability, T/C",[19],25.3%
same,"viability, T/C",[20],15.9%
same,"viability, T/C",[21],17.2%
same,"viability, T/C",[22],11.2%
same,"viability, T/C",[23],10.6%
same,"viability, T/C",[24],13.6%
same,"viability, T/C",[25],1.86%
same,"viability, T/C",[26],2.35%
same,"viability, T/C",[27],2.46%
same,"viability, T/C",[28],1.99%
same,"viability, T/C",[29],2.23%
same,"viability, T/C",[30],1.76%
same,"viability, T/C",[31],0.27%
same,"viability, T/C",[32],0.23%
same,"viability, T/C",[33],0.79%
same,"viability, T/C",[34],0.49%
same,"viability, T/C",[35],0.45%
same,"viability, T/C",[36],0.34%
COc1cccc2c1C(=O)c1c(O)c3c(c(O)c1C2=O)CC(O)(C(=O)CO)CC3OC1CC(N)C(O)C(C)O1 (stereo unspecified) + Cc1cnc(CNC(=O)c2c(=O)c3ccc(N4CCCN(C)CC4)nc3n3c2sc2ccccc23)cn1,IC50,second compound 0.0316 µM,0.153 µM
same,IC50,second compound 0.1 µM,0.159 µM
same,IC50,second compound 0.316 µM,0.169 µM
same,IC50,second compound 1 µM,0.155 µM
same,IC50,second compound 3.16 µM,0.139 µM
same,IC50,second compound 10 µM,0.138 µM
same,"viability, T/C",[1],70.5%
same,"viability, T/C",[2],54.8%
same,"viability, T/C",[3],39%
same,"viability, T/C",[4],13.5%
same,"viability, T/C",[5],0.14%
same,"viability, T/C",[6],0.9%
same,"viability, T/C",[7],70.2%
same,"viability, T/C",[8],57.4%
same,"viability, T/C",[9],37.8%
same,"viability, T/C",[10],13.7%
same,"viability, T/C",[11],0.14%
same,"viability, T/C",[12],0.43%
same,"viability, T/C",[13],62.9%
same,"viability, T/C",[14],59.9%
same,"viability, T/C",[15],38.7%
same,"viability, T/C",[16],11.7%
same,"viability, T/C",[17],0.32%
same,"viability, T/C",[18],0.4%
same,"viability, T/C",[19],61.8%
same,"viability, T/C",[20],53.2%
same,"viability, T/C",[21],41.2%
same,"viability, T/C",[22],11.4%
same,"viability, T/C",[23],0.12%
same,"viability, T/C",[24],0.16%
same,"viability, T/C",[25],59.1%
same,"viability, T/C",[26],52.5%
same,"viability, T/C",[27],39.3%
same,"viability, T/C",[28],10.6%
same,"viability, T/C",[29],0.2%
same,"viability, T/C",[30],0.14%
same,"viability, T/C",[31],59.9%
same,"viability, T/C",[32],55.9%
same,"viability, T/C",[33],35.3%
same,"viability, T/C",[34],9.6%
same,"viability, T/C",[35],0.2%
same,"viability, T/C",[36],0.69%
CC(=O)O[C@H]1C(=O)[C@@]2(C)[C@H]([C@H](OC(=O)c3ccccc3)[C@]3(O)C[C@H](OC(=O)[C@H](O)[C@@H](NC(=O)c4ccccc4)c4ccccc4)C(C)=C1C3(C)C)[C@]1(OC(C)=O)CO[C@@H]1C[C@@H]2O + Cc1[nH]c2ccc(F)cc2c1-c1nc2c3cccnc3c3ncccc3c2[nH]1,IC50,second compound 0.0316 µM,< 0.0316 µM
same,IC50,second compound 0.1 µM,0.0368 µM
same,IC50,second compound 0.316 µM,0.0322 µM
same,IC50,second compound 1 µM,< 0.0316 µM
same,IC50,second compound 3.16 µM,< 0.0316 µM
same,IC50,second compound 10 µM,< 0.0316 µM
same,"viability, T/C",[1],52.2%
same,"viability, T/C",[2],32.3%
same,"viability, T/C",[3],35.5%
same,"viability, T/C",[4],30.8%
same,"viability, T/C",[5],28.9%
same,"viability, T/C",[6],30.1%
same,"viability, T/C",[7],52.5%
same,"viability, T/C",[8],33.2%
same,"viability, T/C",[9],29.5%
same,"viability, T/C",[10],31%
same,"viability, T/C",[11],28.3%
same,"viability, T/C",[12],28.7%
same,"viability, T/C",[13],50.2%
same,"viability, T/C",[14],35.5%
same,"viability, T/C",[15],28.8%
same,"viability, T/C",[16],29.5%
same,"viability, T/C",[17],29.7%
same,"viability, T/C",[18],26.8%
same,"viability, T/C",[19],41.2%
same,"viability, T/C",[20],30.2%
same,"viability, T/C",[21],32.1%
same,"viability, T/C",[22],24.9%
same,"viability, T/C",[23],29.7%
same,"viability, T/C",[24],24.6%
same,"viability, T/C",[25],6.75%
same,"viability, T/C",[26],4.71%
same,"viability, T/C",[27],4.42%
same,"viability, T/C",[28],3.51%
same,"viability, T/C",[29],5.16%
same,"viability, T/C",[30],3.23%
same,"viability, T/C",[31],27.3%
same,"viability, T/C",[32],25.1%
same,"viability, T/C",[33],17.3%
same,"viability, T/C",[34],21.1%
same,"viability, T/C",[35],23.2%
same,"viability, T/C",[36],18.3%
